# Where two headings read alike, the source gives them in different places.
# Assays:
# Test in all cases: biochemical
# Design in all cases: Reaction Biology 371-kinase panel at Km ATP, per cent enzyme activity relative to DMSO, single dose in duplicate
# ALK1/ACVRL1 = ALK1/ACVRL1 (Homo sapiens, UniProt P37023); details: duplicate measurements, Km ATP
# Method in brief: (§1)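 In vitro selectivity panel: 371 kinases, inhibitor at 300 nM; % activity vs DMSO; IC50 by variable-slope sigmoidal fit, bottom = 0.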
# MARK4 = MARK4 (Homo sapiens, UniProt Q96L34); details: duplicate measurements, Km ATP
# Method in brief: as §1
# JNK2 = target: T1, JNK2 (Homo sapiens, UniProt P45984); details: duplicate measurements, Km ATP
# T1 construct: gene MAPK9
# Method in brief: as §1
# FAK/PTK2 = FAK/PTK2 (Homo sapiens, UniProt Q05397); details: duplicate measurements, Km ATP
# Method in brief: as §1
# EPHA8 = EPHA8 (Homo sapiens, UniProt P29322); details: duplicate measurements, Km ATP
# Method in brief: as §1
# EPHB2 = EPHB2 (Homo sapiens, UniProt P29323); details: duplicate measurements, Km ATP
# Chain of EPHB2 (P29323 whole entry): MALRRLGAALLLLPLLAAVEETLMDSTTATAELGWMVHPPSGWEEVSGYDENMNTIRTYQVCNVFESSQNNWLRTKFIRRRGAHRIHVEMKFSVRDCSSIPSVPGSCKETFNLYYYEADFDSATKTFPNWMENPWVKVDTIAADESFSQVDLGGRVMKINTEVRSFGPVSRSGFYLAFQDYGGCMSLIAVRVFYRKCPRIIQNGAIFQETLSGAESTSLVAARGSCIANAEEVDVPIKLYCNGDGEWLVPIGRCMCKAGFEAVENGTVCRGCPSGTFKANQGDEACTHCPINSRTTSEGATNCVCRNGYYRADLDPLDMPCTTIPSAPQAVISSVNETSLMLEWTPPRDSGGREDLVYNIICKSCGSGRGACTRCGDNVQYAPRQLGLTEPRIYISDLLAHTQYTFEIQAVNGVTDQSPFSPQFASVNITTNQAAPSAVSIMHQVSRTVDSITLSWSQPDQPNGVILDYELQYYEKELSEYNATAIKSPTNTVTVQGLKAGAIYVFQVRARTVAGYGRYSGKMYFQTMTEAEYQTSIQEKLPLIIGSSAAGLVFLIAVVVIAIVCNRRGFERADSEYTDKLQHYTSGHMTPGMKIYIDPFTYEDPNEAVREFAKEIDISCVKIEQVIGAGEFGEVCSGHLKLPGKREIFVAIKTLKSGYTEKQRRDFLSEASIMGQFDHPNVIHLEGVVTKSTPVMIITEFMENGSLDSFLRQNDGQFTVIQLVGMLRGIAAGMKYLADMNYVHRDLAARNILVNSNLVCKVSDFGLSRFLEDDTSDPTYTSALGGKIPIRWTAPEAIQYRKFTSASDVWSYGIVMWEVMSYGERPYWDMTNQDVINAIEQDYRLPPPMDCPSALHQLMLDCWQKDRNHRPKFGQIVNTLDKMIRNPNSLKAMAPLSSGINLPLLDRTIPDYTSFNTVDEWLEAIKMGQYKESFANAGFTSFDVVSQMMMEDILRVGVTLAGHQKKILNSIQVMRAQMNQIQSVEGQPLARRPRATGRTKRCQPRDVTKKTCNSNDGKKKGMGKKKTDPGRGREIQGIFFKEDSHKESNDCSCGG
# Method in brief: as §1
# NEK11 = NEK11 (Homo sapiens, UniProt Q8NG66); details: duplicate measurements, Km ATP
# Chain of NEK11 (Q8NG66 whole entry): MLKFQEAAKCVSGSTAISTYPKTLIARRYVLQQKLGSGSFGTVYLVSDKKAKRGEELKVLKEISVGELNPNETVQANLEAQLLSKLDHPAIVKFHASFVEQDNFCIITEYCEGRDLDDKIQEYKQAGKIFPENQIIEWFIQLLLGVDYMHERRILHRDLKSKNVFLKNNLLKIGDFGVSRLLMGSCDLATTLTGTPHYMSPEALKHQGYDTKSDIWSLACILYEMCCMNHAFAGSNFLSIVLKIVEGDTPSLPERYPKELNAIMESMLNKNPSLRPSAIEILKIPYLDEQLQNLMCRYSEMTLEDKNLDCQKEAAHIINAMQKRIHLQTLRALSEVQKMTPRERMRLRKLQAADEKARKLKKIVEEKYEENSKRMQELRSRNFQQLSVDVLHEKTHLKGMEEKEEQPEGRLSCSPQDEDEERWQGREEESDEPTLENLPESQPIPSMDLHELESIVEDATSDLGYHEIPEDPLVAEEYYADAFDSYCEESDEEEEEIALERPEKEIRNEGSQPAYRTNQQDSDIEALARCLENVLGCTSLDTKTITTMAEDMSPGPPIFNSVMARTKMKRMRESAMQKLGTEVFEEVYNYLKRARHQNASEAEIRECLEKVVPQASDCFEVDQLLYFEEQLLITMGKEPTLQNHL
# Method in brief: as §1
# ALK4/ACVR1B = ALK4/ACVR1B (Homo sapiens, UniProt P36896); details: duplicate measurements, Km ATP
# Chain of ALK4/ACVR1B (P36896 whole entry): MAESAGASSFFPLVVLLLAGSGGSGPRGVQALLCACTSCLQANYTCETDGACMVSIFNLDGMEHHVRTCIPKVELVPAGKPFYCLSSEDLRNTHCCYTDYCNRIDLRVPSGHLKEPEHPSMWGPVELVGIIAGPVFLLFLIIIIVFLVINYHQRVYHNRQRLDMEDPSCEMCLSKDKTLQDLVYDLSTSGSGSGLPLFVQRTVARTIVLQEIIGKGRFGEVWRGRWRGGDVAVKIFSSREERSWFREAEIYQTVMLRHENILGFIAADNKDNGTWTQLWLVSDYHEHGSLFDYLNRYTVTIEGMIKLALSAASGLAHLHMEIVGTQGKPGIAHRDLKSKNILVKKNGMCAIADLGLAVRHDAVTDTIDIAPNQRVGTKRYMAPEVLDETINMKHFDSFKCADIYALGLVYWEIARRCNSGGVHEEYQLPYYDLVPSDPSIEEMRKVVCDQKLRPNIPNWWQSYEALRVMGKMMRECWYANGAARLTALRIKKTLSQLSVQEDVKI
# Method in brief: as §1
# FGFR3 = FGFR3 (Homo sapiens, UniProt P22607); details: duplicate measurements, Km ATP
# Method in brief: as §1
# CLK4 = CLK4 (Homo sapiens, UniProt Q9HAZ1); details: duplicate measurements, Km ATP
# Method in brief: as §1
# LKB1 = target: T2, LKB1 (Homo sapiens, UniProt Q15831); details: duplicate measurements, Km ATP
# T2 construct: gene STK11
# Method in brief: as §1
# DYRK1B = DYRK1B (Homo sapiens, UniProt Q9Y463); details: duplicate measurements, Km ATP
# Chain of DYRK1B (Q9Y463 whole entry): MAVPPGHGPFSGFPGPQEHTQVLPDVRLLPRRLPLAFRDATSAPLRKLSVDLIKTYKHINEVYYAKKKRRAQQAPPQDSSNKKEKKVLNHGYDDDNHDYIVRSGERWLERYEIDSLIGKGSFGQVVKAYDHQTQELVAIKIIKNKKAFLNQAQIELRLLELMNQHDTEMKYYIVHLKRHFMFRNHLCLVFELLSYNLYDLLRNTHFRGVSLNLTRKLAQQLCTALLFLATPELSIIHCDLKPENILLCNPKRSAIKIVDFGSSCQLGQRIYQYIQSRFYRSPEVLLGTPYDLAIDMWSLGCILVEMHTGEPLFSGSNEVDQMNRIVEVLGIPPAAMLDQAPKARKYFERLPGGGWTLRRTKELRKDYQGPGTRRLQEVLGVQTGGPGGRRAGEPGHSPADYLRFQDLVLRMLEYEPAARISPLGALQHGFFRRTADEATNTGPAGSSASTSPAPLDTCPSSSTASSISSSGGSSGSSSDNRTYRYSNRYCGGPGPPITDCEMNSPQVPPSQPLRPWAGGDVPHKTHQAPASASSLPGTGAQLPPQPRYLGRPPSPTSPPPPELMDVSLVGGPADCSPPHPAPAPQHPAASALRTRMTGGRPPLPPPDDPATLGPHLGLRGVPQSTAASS
# Method in brief: as §1
# GRK7 = GRK7 (Homo sapiens, UniProt Q8WTQ7); details: duplicate measurements, Km ATP
# Method in brief: as §1
# MAPKAPK5/PRAK = MAPKAPK5/PRAK (Homo sapiens, UniProt Q8IW41); details: duplicate measurements, Km ATP
# Chain of MAPKAPK5/PRAK (Q8IW41 whole entry): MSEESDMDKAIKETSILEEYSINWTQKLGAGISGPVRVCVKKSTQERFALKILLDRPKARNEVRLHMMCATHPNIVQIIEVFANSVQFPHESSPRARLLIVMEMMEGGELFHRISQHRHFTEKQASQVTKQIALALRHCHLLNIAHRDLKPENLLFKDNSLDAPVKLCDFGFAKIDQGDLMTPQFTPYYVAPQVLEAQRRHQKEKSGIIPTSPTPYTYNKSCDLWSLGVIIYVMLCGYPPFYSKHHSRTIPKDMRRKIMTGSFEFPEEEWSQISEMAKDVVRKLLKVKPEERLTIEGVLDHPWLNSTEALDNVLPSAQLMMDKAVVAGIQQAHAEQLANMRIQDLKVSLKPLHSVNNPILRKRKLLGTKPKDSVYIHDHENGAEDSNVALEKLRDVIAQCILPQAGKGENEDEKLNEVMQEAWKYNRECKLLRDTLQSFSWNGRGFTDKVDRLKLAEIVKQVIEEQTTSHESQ
# Method in brief: as §1
# TAOK2/TAO1 = TAOK2/TAO1 (Homo sapiens, UniProt Q9UL54); details: duplicate measurements, Km ATP
# Method in brief: as §1
# TLK1 = TLK1 (Homo sapiens, UniProt Q9UKI8); details: duplicate measurements, Km ATP
# Chain of TLK1 (Q9UKI8 whole entry): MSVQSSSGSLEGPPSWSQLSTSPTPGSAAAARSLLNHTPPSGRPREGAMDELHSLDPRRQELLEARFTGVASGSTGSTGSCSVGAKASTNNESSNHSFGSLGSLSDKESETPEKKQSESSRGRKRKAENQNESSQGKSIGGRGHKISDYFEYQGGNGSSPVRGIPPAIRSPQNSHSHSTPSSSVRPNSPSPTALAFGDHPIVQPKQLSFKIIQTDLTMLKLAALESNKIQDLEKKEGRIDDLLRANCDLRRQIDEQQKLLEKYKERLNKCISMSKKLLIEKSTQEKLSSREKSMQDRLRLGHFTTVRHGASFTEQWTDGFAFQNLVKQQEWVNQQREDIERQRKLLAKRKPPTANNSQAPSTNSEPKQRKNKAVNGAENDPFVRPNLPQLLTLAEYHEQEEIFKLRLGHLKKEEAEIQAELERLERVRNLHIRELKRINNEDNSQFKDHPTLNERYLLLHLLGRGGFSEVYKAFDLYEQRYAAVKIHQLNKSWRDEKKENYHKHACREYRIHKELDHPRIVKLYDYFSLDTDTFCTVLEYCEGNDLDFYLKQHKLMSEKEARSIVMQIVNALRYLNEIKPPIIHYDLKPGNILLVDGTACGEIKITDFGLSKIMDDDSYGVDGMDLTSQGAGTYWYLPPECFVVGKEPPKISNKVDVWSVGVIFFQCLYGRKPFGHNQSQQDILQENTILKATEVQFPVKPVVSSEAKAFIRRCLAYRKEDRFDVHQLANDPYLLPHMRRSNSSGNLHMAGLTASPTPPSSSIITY
# Method in brief: as §1
# EPHA1 = EPHA1 (Homo sapiens, UniProt P21709); details: duplicate measurements, Km ATP
# Method in brief: as §1
# CDK1/cyclin B = CDK1/cyclin B (Homo sapiens, UniProt P06493); details: duplicate measurements, Km ATP; read-out: % Enzyme Activity (relative to DMSO controls) / TP-0005801 (0.3µM) / Data 1
# Method in brief: as §1
# ULK3 = ULK3 (Homo sapiens, UniProt Q6PHR2); details: duplicate measurements, Km ATP
# Chain of ULK3 (Q6PHR2 whole entry): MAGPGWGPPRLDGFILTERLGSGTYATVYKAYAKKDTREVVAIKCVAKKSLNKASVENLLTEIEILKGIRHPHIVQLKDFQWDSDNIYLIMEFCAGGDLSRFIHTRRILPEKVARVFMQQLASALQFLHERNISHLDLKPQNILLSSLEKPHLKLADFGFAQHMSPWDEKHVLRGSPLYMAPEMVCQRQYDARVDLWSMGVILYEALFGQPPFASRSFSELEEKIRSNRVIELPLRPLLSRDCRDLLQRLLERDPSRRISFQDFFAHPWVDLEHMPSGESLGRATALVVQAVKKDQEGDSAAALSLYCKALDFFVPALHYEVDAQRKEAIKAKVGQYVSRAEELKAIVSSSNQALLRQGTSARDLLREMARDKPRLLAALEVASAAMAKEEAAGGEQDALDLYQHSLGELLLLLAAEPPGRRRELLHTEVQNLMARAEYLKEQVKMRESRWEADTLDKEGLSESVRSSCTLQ
# Method in brief: as §1
# PIM1 = PIM1 (Homo sapiens, UniProt P11309); details: duplicate measurements, Km ATP
# Chain of PIM1 (P11309 whole entry): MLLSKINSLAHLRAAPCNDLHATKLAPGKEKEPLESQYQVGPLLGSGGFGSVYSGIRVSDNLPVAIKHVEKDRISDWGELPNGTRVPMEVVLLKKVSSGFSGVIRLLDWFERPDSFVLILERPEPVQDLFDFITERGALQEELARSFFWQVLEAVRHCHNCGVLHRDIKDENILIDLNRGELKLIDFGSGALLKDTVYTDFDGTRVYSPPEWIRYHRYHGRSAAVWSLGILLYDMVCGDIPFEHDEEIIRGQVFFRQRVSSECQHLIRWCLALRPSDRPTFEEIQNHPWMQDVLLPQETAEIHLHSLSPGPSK
# Method in brief: as §1
# [1] = read-out: % Enzyme Activity (relative to DMSO controls) / TP-0005801 (0.3µM) / Data 1
# [2] = read-out: % Enzyme Activity (relative to DMSO controls) / TP-0005801 (0.3µM) / Data 2
smiles,measurement,setting,value
COc1cc(N2CCN(C)CC2)c(C)cc1Nc1ncc(Br)c(Nc2cccnc2N(C)C)n1 [TP-5801],remaining activity at 0.3 µM,ALK1/ACVRL1; [1],88.3%
same,remaining activity at 0.3 µM,ALK1/ACVRL1; [2],83.6%
same,remaining activity at 0.3 µM,MARK4; [1],89.8%
same,remaining activity at 0.3 µM,MARK4; [2],88.4%
same,remaining activity at 0.3 µM,JNK2; [1],97%
same,remaining activity at 0.3 µM,JNK2; [2],96.3%
same,remaining activity at 0.3 µM,FAK/PTK2; [1],12.3%
same,remaining activity at 0.3 µM,FAK/PTK2; [2],11.4%
same,remaining activity at 0.3 µM,EPHA8; [1],95.1%
same,remaining activity at 0.3 µM,EPHA8; [2],93.8%
same,remaining activity at 0.3 µM,EPHB2; [1],86.4%
same,remaining activity at 0.3 µM,EPHB2; [2],85.6%
same,remaining activity at 0.3 µM,NEK11; [1],99.3%
same,remaining activity at 0.3 µM,NEK11; [2],94.5%
same,remaining activity at 0.3 µM,ALK4/ACVR1B; [1],86.9%
same,remaining activity at 0.3 µM,ALK4/ACVR1B; [2],85%
same,remaining activity at 0.3 µM,FGFR3; [1],107%
same,remaining activity at 0.3 µM,FGFR3; [2],105%
same,remaining activity at 0.3 µM,CLK4; [1],30.4%
same,remaining activity at 0.3 µM,CLK4; [2],30.2%
same,remaining activity at 0.3 µM,LKB1; [1],107%
same,remaining activity at 0.3 µM,LKB1; [2],105%
same,remaining activity at 0.3 µM,DYRK1B; [1],77.1%
same,remaining activity at 0.3 µM,DYRK1B; [2],75.8%
same,remaining activity at 0.3 µM,GRK7; [1],105%
same,remaining activity at 0.3 µM,GRK7; [2],97.5%
same,remaining activity at 0.3 µM,MAPKAPK5/PRAK; [1],116%
same,remaining activity at 0.3 µM,MAPKAPK5/PRAK; [2],107%
same,remaining activity at 0.3 µM,TAOK2/TAO1; [1],86%
same,remaining activity at 0.3 µM,TAOK2/TAO1; [2],84.4%
same,remaining activity at 0.3 µM,TLK1; [1],103%
same,remaining activity at 0.3 µM,TLK1; [2],101%
same,remaining activity at 0.3 µM,EPHA1; [1],96.8%
same,remaining activity at 0.3 µM,EPHA1; [2],96.5%
same,remaining activity at 0.3 µM,CDK1/cyclin B,103%
same,remaining activity at 0.3 µM,ULK3; [1],43.8%
same,remaining activity at 0.3 µM,ULK3; [2],40.1%
same,remaining activity at 0.3 µM,PIM1; [1],93.2%
same,remaining activity at 0.3 µM,PIM1; [2],92.8%
